This is an account of results in paper PMC5671725, “Fluorinated Adenosine A2A Receptor Antagonists Inspired by Preladenant as Potential Cancer Immunotherapeutics” (International Journal of Medicinal Chemistry, 2017).

The target of series [1] is T1, A2AR (Mus musculus, UniProt Q60613). Further details: endogenous in cells; method as in PMID 24126093. As to conditions: compared with xanthine 2; cited from earlier work.
In series [2] the target is T1, A2AR. On the set-up: endogenous in cells; host or cells: primary lymphocytes from the spleen of C57/BL6 mice; method as in PMID 24126093. Conditions: compared with xanthine 2; cited from earlier work.
Series [3] has as its target T1, A2AR. In words: Inhibition of A2AR-induced (CGS21680) intracellular cAMP accumulation in lymphocytes. The format is cell-based, C57/BL6 mice. On the set-up: endogenous in cells; host or cells: primary lymphocytes from the spleen of C57/BL6 mice. Conditions: 1 µM CGS plus 1 μM compound, 15 min, cAMP ELISA. The method, then: Bioassay of compounds 27–31 and 40 and their parent compounds (4 and 5a) was conducted using two functional assays that evaluate A2AR binding-dependent signaling through A2AR on the surface of T cells. The first assay screens compounds on the basis of their extent of inhibition of A2AR-induced intracellular cAMP accumulation in A2AR expressing lymphocytes. The A2AR agonist, CGS21680 (CGS, 6), was used to activate A2AR.
Figure 4 Intracellular cAMP levels in lymphocytes after incubation with vehicle, 1 µM CGS, and 1 µM CGS plus 1 μM of compounds 4 (preladenant), 27–31, 5a (tozadenant), 40, 2 (KW-6002), and 3 (KW-PEG) are shown. The intracellular cAMP levels were determined 15 min following stimulation using quantitative cAMP ELISA and are expressed as fmol/10^6 cells. Data shown represent mean ± SEM of triplicate samples.
(§1) Measuring functionality of A2AR antagonism by cAMP assay
Stimulation of intracellular cAMP production and measurement of cAMP levels were performed as described previously.[18b] Lymphocytes were isolated from the spleen of C57/BL6 mice and suspended at a concentration of 400,000 cells/well, and then treated with 1 µM CGS 21680 6 (A2AR-specific agonist; from Tocris, Ellisville, MO) with or without KW-6002 2, KW-PEG 3, preladenant 4, tozadenant 5a and their PEGylated analogs 27-31 and 40 (at a concentration of […]). The cells were incubated for 15 min at 37 °C , and the reaction was stopped by addition of 1 N hydrochloric acid. Levels of cAMP were determined by ELISA (Amersham Biosciences, Buckinghamshire, UK). All treatment groups were performed in triplicate. […]

Series [4] addresses T1, A2AR. The experiment in a line: Cytokine release assay: IFN-gamma secretion by anti-CD3 activated splenocytes treated with CGS. The format is cell-based, C57BL/6 mice. On the set-up: endogenous in cells. As to conditions: 0.1 µg/mL anti-CD3, 1 µM CGS plus 1 µM compound, one day, ELISA. Here is the method: The second immunoassay assesses secretion of the cytokine IFN-gamma, since it is considered to be sensitive to the A2AR signaling pathway. In these assays, during T cell receptor (TCR) activation by the CD3 ligand, C57BL/6 mice splenocytes T cells are incubated with A2AR agonist CGS to inhibit IFN-gamma secretion resulting from A2AR-induced immunosuppression via intracellular cAMP. Effective A2AR antagonists block the A2AR-activated signal, thus restoring secretion of the cytokine to potentiate and prolong the immune response.
Figure 6 The IFN-gamma production by splenocytes after activation with 0.1 µg/mL anti-CD3 and when treated with vehicle, 1 µM CGS, and 1 µM CGS plus 1 µM compounds 29, 2 (KW-6002), 3 (KW-PEG), and 4 (preladenant) separately is shown. The IFN-gamma levels were determined in the supernatant one day following stimulation using quantitative ELISA and are expressed as pg/mL. Data shown represent mean ± SEM of triplicate samples.
as §1
Stimulation of intracellular cAMP production and measurement of cAMP levels were performed as described previously.[18b] […] Levels of cAMP were determined by ELISA (Amersham Biosciences, Buckinghamshire, UK). […]

The nature of series [5]: Log D7.4 shake-flask octanol-water. The format is physicochemical. Conditions: octanol / 10 mM sodium phosphate pH 7.4, read-out: logD7.4. The method, then:
Determination of Physicochemical Properties […]
A shake-flask method was employed to determine octanol-water distribution coefficients at pH
7.4 (Log D7.4). The aqueous solution used was 10 mM sodium phosphate pH 7.4 buffer. The
method was validated for Log D7.4 ranging from -2 to 5.0. […]

Series [6] is described as follows: Aqueous pH 7.4 solubility. As to conditions: aqueous buffer, thermodynamic from solid; 0.1 M phosphate buffer pH 7.4, 25°C, 20-24 hours. The series is classed as physicochemical. The method, then: (§2) Determination of Physicochemical Properties
(§3) Aqueous pH 7.4 Solubility
(§4) Compounds were dried down from 10 mM DMSO solutions using centrifugal evaporation techniques. Phosphate buffer (0.1 M pH 7.4) was added and StirStix inserted in the glass vials.
Agitation was then performed at a constant temperature of 25°C for 20 -24 hours. The vials were then subjected to double centrifugation (with a tip wash in between) to eliminate any residues of the dried compound. The solutions were then diluted and quantitated using LC/MS/MS. […]

A short description of series [7]: Human plasma protein binding (equilibrium dialysis, RED device). The format is in vitro ADME. As to conditions: pH 7.4, 10 µM initial concentration, 37°C, read-out: Human PPB (converted). Here is the method: Figure S1. Docking results of compounds 27-29 via Glide XP method. The H-bond interaction is represented as a pink arrow, pi-pi stacking as a green arrow. (A) Compound 27 docking pattern. (B) Compound 28 docking pose. (C) Compound 29 docking result. Pictures are rendered […]
as §2, §3, §4
Agitation was then performed at a constant temperature of 25°C for 20 -24 hours. The vials were then subjected to double centrifugation (with a tip wash in between) to eliminate any residues of the dried compound. The solutions were then diluted and quantitated using LC/MS/MS.
A shake-flask method was employed to determine octanol-water distribution coefficients at pH 7.4 (Log D7.4). The aqueous solution used was 10 mM sodium phosphate pH 7.4 buffer. The method was validated for Log D7.4 ranging from -2 to 5.0.
Human Plasma Protein Binding (PPB)
PPB was determined using equilibrium dialysis (RED device) to separate free from bound compound. The amount of compound in plasma (10 µM initial concentration) and in dialysis […]
(§5) buffer (pH 7.4 phosphate buffer) was measured by LC-MS/MS after equilibration at 37°C in a dialysis chamber. The fraction unbound (fu) is reported.
(§6) In vitro intrinsic clearance was determined from human liver microsomes or rat hepatocytes using standard methods. Following incubation and preparation, the samples were analyzed using […]
(§7) µl/min/mg or µl/min/1 million cells.

Series [8] can be described thus: Intrinsic clearance in rat hepatocytes. The series is classed as in vitro ADME. The method, then:
as §5, §6, §7

Series [9] is described as follows: Intrinsic clearance in human liver microsomes. As to conditions: read-out: HLM CLint. The series is classed as in vitro ADME. The method, then:
as §5, §6, §7

For series [10], the target named is T2, A2ARs (Mus musculus, UniProt Q60613).
T2 construct: from tissue; host or cells: whole animal, female C57BL/6 mice (in vivo)
T2 sequence (Q60613 whole entry): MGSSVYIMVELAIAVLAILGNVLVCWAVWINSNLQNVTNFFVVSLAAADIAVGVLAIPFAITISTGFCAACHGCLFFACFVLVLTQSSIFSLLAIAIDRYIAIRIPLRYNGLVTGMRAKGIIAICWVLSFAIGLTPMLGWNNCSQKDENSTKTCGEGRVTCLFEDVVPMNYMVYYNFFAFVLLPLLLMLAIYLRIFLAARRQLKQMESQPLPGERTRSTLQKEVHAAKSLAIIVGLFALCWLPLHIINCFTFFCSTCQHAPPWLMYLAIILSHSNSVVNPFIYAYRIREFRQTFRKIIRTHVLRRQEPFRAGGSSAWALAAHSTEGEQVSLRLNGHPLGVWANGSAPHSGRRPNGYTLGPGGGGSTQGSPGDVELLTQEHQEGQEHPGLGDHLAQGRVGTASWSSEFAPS
In words: Concanavalin A (ConA)-induced liver damage assay. The format is in vivo. As to conditions: female C57BL/6 mice, 2 mg kg^-1 compound then Con A 20 mg kg^-1, evaluated at 8 h. Here is the method: To select lead compounds for immunotherapy application, an in vivo Concanavalin A (ConA)-induced liver damage assay was carried out in C57BL/6 mice through the pharmacological activation and deactivation of A2ARs. A variety of compounds were screened including 2, 3, and 4 [10, 18, 19]. […] Fluorinated analogs were envisioned to potentially serve as leads to ultimately be labeled at the distal position with fluorine-18 (t1/2 = 109.8 min), for diagnostic imaging with positron emission tomography (PET). A series of fluorinated PEG groups with increasing chain lengths were proposed for chemical modification to map the structure-activity relationship (SAR). Such modifications increase both hydrophilicity and molecular weight (MW), potentially to reduce blood-brain barrier (BBB) penetration as predicted by the central nervous system multiparameter optimization (MPO) score reported by Wager et al..
Figure 2 ConA-induced liver damage in C57BL/6 mice via CGS (6), 2, 3 and 4. Female C57BL/6 mice (n = 5) were first injected with A2AR agonist CGS (6, 2 mg kg^−1), 2 mg kg^−1 2, 3, and 4 separately, and then Con A (20 mg kg^−1). Con A-induced liver damage evaluated at 8 h.

Details of series [11]: method as in PMID 24164628, PMID 25311639, PMID 25174927. Conditions: Parkinson's disease; cited from earlier work.
For series [12], the system named is CL8-1 melanoma. On the set-up: method as in PMID 18163162, PMID 17404693, PMID 18404426, PMID 18311159, PMID 19201652. As to conditions: mice; cited from earlier work.

In brackets after ≈: the same amount, converted by molar mass.

T1 sequence (Q60613 whole entry): as above

On to `CCn1c(=O)c2c(nc(/C=C/c3ccc(C(=O)OCCOCCOCCOCCOCCOCCOCCOCCOC)c(OC)c3)n2C)n(CC)c1=O` [Compound 3], for which the “Cytokine IFN-gamma restoration” value in series [1] was “enhanced properties”. In addition, the cAMP suppression result in series [2] is on record as “enhanced properties”.

Turning to `COCCOCCOCCOCCOCCOCCOCCOCCOc1ccc(N2CCN(CCn3ncc4c3nc(N)n3nc(-c5ccco5)nc43)CC2)cc1` [Compound 31], in series [3], the “Antagonism of CGS-mediated intracellular cAMP accumulation” value (shortened to “Antagonism”) was “decreased antagonism”.

In the case of `Nc1nc2c(cnn2CCN2CCN(c3ccc(OCCOCCOCCF)cc3)CC2)c2nc(-c3ccco3)nn12` [Compound 29], the “Restoration of IFN-gamma secretion” value in series [4] is recorded as “superior restoration of IFN-gamma secretion compared to either 2 or 3”. The logD in [5] was 2.3. For the same compound, the solubility in series [6] was found to be 10 µM (≈ 5.8 µg/mL). In series [7], the fraction unbound at 10 µM is 0.017. In series [8], the “Rat hepatocyte CLint” value is recorded as 72.9 μL/min/10^6. Further, the microsomal CLint in series [9] is 66.1 µL/min/mg.

As for `COCCOc1ccc(N2CCN(CCn3ncc4c3nc(N)n3nc(-c5ccco5)nc43)CC2)cc1` [Compound 4, preladenant], the “Restoration of IFN-gamma secretion” value in [4] is on record as “superior restoration of IFN-gamma secretion compared to either 2 or 3”. The ConA-induced liver damage entry in series [10] is “most severe immune induced liver damage”. Further, the “Efficacy in Phase III trials” value in series [11] is given as “failed to show efficacy”.

Regarding `Nc1nc(NCCc2ccc(O)cc2)nc2nc(-c3ccco3)nn12` [Compound 1, ZM241385], in [12], the “Growth of CL8-1 melanoma” value is listed as “delayed growth of CL8-1 melanoma in mice” and the “Levels of endogenous antitumor T cells” value was “increased levels of endogenous antitumor T cells”.

As to `COc1ccc(N2CCOCC2)c2sc(NC(=O)N3CCC(C)(O)CC3)nc12` [Compound 5a, tozadenant, reference compound], the “Antagonism” value in series [3] was “inferior antagonism to that of compounds 2 and 3”.

Turning to `COCCOCCOCCOCCOCCOCCOCCOCCOc1ccc(N2CCN(C(=O)Nc3nc4c(OC)ccc(N5CCOCC5)c4s3)CC2)cc1` [Compound 40], in series [3], the “Antagonism” value is reported as “no suppression of intracellular cAMP accumulation”.

Regarding `Nc1nc2c(cnn2CCN2CCN(c3ccc(OCCOCCF)cc3)CC2)c2nc(-c3ccco3)nn12` [Compound 28], the logD in series [5] turned out to be 2.5. In [6], the solubility was 2 µM (≈ 1.07 µg/mL). Further, in [7], the fraction unbound at 10 µM was 0.013. The “Rat hepatocyte CLint” value in series [8] was found to be 12.8 μL/min/10^6. Further, the microsomal CLint in series [9] was found to be 71.9 µL/min/mg.

For `Nc1nc2c(cnn2CCN2CCN(c3ccc(OCCOCCOCCOCCOCCOCCF)cc3)CC2)c2nc(-c3ccco3)nn12` [Compound 30], the “Antagonism” value in series [3] is “decreased antagonism”.

Regarding `Nc1nc2c(cnn2CCN2CCN(c3ccc(OCCF)cc3)CC2)c2nc(-c3ccco3)nn12` [Compound 27], the logD in series [5] is 2.8. The solubility in [6] was found to be 74 µM (≈ 36.4 µg/mL). In addition, in series [7], the fraction unbound at 10 µM is 0.01. For the same compound, the “Rat hepatocyte CLint” value in [8] is reported as 29.9 μL/min/10^6. Besides, the microsomal CLint in [9] was 16.5 µL/min/mg.
